Broadly, the IC50 is the midpoint of a concentration-inhibition curve. Lower therefore signals inhibition by little substance.

The series concerns the target T1, Human CYP8B1 (Homo sapiens, UniProt Q9UNU6).
T1 construct: tissue Xenotech; host or cells: human liver microsomes
T1 sequence (Q9UNU6 1-501): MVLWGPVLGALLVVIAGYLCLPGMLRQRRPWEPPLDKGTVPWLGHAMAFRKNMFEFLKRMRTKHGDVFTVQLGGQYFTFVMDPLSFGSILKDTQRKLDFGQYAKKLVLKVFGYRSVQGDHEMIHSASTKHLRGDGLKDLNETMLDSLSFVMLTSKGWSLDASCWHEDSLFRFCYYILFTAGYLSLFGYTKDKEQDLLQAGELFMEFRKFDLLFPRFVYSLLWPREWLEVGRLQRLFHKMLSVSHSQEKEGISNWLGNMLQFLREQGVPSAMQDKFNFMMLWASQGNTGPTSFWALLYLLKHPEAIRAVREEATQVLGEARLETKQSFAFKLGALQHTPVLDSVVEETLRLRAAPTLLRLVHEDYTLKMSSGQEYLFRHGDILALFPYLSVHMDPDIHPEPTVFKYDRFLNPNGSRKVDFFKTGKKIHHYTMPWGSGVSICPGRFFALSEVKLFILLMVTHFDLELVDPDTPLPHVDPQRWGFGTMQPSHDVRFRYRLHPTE
Nature of the series: Human Cyp8B1 Liver Microsome Assay. The class given is biochemical. Conditions: human liver microsomes; substrate 7α-hydroxy-4-cholesten-3-one, NADPH; 30 min pre-incubation, 45 min reaction; RapidFire MS readout. As for the experimental part: Human Cyp8B1 Liver Microsome Assay To a 384 well polypropylene plate (Corning 3656), 250 nl of inhibitor in 100% DMSO (1.25% final DMSO concentration) was pre-plated using an Echo liquid handler (Labcyte Inc.). Human liver microsomes (Xenotech) were diluted in of 0.1 M phosphate buffer, pH 7.4, at a concentration of 65 μg/ml and 15 μL was added to the 384 well plate. The plates were incubated at ambient room temperature for 30 minutes. After pre-incubation with inhibitor, the reaction was initiated by adding 5 μl of substrate solution (4.0 μM 7α-hydroxy-4-cholesten-3-one(Toronto Research Chemicals), 2 mM of NADPH (Sigma), 0.1 M phosphate buffer (pH 7.4). The reaction was carried out for 45 minutes at ambient room temperature and was quenched by the addition of 50 μl of acetonitrile+0.1% vol/vol formic acid (FA)+300 nM 7α-hydroxy-4-cholesten-3-one-d7 (Toronto Research Chemicals). The plates were sealed and centrifuged at 3000 rpm for 5 minutes. Plates were loaded onto the Agilent RapidFire RF300 HTMS system, wherein samples were sipped for 600 ms, and the sip sensor detection signals the diversion of sample from the loop onto a C4 solid phase extraction (SPE) cartridge, where salts are washed off for 2500 ms with a mobile phase of water with 0.1% vol/vol FA at a flow rate of 1.5 ml/min. The column path is switched, and the sample is eluted off the cartridge and flowed into the mass spectrometer for 3000 ms with a mobile phase of acetonitrile and 0.1% vol/vol FA at a flow rate of 1.25 ml/min. The aspirator tip was washed separately with water and acetonitrile between sample aspirations (each for 600 ms) to minimize carryover contamination. Mass spectrometry was carried out using a Sciex API4000 triple quadrupole mass spectrometer (Applied Biosystems, Concord, ON, Canada) equipped with electrospray ionization (ESI) operated in the positive-ion mode. The product 7α, 12α-dihydroxy-4-cholesten-3-one and internal standard 7α-hydroxy-4-cholsten-3-one-d7 were detected using multiple reaction monitoring (MRM) with Q1/Q3 transitions at m/z 417.3 to 381.3 and m/z 408.3 to 390.3, respectively, with a dwell time of 100 ms and a collision energy of 24 V for each transition. The mass spectrometer used an ESI voltage of 5000 V and a source temperature of 650° C. Extracted ion chromatograms for each transition were integrated and processed using the RapidFire Integrator software. The data for each well were normalized by monitoring product conversion with the ratio of AUCproduct/(AUCinternal standard). The data was then fitted to a four parameter logistic fit using ActivityBase Software to calculate an IC50 of the inhibitor.
(Liver microsomes are vesicles of endoplasmic reticulum, rich in cytochrome P450 enzymes.)

Turning to `COc1ccc2c(N3CC[C@H](C(=O)N4CCn5c(nnc5C(F)(F)F)C4)[C@H](C)C3)c(C3CC3)cnc2c1` [Example 34, [(3S,4S)-1-(3-cyclopropyl-7-methoxyquinolin-4-yl)-3-methylpiperidin-4-yl][3-(trifluoromethyl)-5,6-dihydro[1,2,4]triazolo[4,3-a]pyrazin-7(8H)-yl]methanone], the half-inhibitory concentration (IC50) was determined as 0.67 nM. The result for `C[C@@H]1CC(c2c(Cl)cnc3cc(C(F)F)ccc23)CCN1C(=O)N1CCn2c(nnc2C(F)(F)F)C1` (stereo partly drawn) [Example 57, ((2R)-4-(3-chloro-7-(difluoromethyl)quinolin-4-yl)-2-methylpiperidin-1-yl)(3-(trifluoromethyl)-5,6-dihydro-[1,2,4]triazolo [4,3-a]pyrazin-7(8H)-yl)methanone] reads 0.32 nM.

`C[C@@H]1CN(c2ccnc3c2CCN(C(=O)OC(C)(C)C)C3)CC[C@@H]1C(=O)N1CCn2c(nnc2C(F)(F)F)C1` [Example 59, tert-butyl 4-((3S,4S)-3-methyl-4-(3-(trifluoromethyl)-5,6,7,8-tetrahydro-[1,2,4]triazolo[4,3-a]pyrazine-7-carbonyl)piperidin-1-yl)-5,6-dihydro-1,7-naphthyridine-7(8H)-carboxylate] had an IC50 of 8.2 nM. The result for `COc1ccc2c(N3CC[C@H](C(=O)N4CCn5c(nnc5C(F)(F)F)C4)[C@H](C)C3)c([N+](=O)[O-])cnc2c1` [Example 9, ((3S,4S)-1-(7-methoxy-3-nitroquinolin-4-yl)-3-methylpiperidin-4-yl)(3-(trifluoromethyl)-5,6-dihydro-[1,2,4]triazolo[4,3-a]pyrazin-7(8H)-yl)methanone] reads 0.2 nM; that for `C[C@@H]1CN(c2c(Cl)cnc3c2CCN(C(=O)C2CC2)C3)CC[C@@H]1C(=O)N1CCn2c(nnc2C(F)(F)F)C1` [Example 65, (3-chloro-4-((3S,4S)-3-methyl-4-(3-(trifluoromethyl)-5,6,7,8-tetrahydro-[1,2,4]triazolo[4,3-a]pyrazine-7-carbonyl)piperidin-1-yl)-5,6-dihydro-1,7-naphthyridin-7(8H)-yl)(cyclopropyl)methanone], 1.75 nM. The figure for `C[C@@H]1CN(c2ccnc3cc(-c4ccncc4)ccc23)CC[C@@H]1C(=O)N1CCn2c(nnc2C(F)(F)F)C1` [Example 79, ((3S,4S)-3-methyl-1-(7-(pyridin-4-yl)quinolin-4-yl)piperidin-4-yl)(3-(trifluoromethyl)-5,6-dihydro-[1,2,4]triazolo[4,3-a]pyrazin-7(8H)-yl)methanone] is 0.7 nM; for `C[C@@H]1CN(c2c(Cl)cnc3cc(-c4ncco4)ccc23)CC[C@@H]1C(=O)N1CCn2c(nnc2C2CC2)C1` [Example 78, ((3S,4S)-1-(3-chloro-7-(oxazol-2-yl)quinolin-4-yl)-3-methylpiperidin-4-yl) (3-cyclopropyl-5,6-dihydro-[1,2,4]triazolo[4,3-a]pyrazin-7(8H)-yl)methanone] it is 0.5 nM. The figure for `C[C@@H]1CN(c2ccnc3cc(Cl)cnc23)CC[C@@H]1C(=O)N1CCn2c(nnc2C(F)(F)F)C1` [Example 2, ((3S,4S)-1-(7-chloro-1,5-naphthyridin-4-yl)-3-methylpiperidin-4-yl)(3-(trifluoromethyl)-5,6-dihydro-[1,2,4]triazolo[4,3-a]pyrazin-7(8H)-yl)methanone] is 18 nM; for `C[C@@H]1CN(c2c(Cl)cnc3cc(-c4ncco4)ccc23)CC[C@@H]1C(=O)N1CCc2c(noc2C(F)(F)F)C1` [Example 77, ((3S,4S)-1-(3-chloro-7-(oxazol-2-yl)quinolin-4-yl)-3-methylpiperidin-4-yl)(3-(trifluoromethyl)-4,5-dihydroisoxazolo [3,4-c]pyridin-6(7H)-yl)methanone] it is 0.2 nM. In turn, `C[C@@H]1CN(c2ccnc3cc(-c4ccccc4)ccc23)CC[C@@H]1C(=O)N1CCn2c(nnc2C(F)(F)F)C1` [Example 80] returned a half-maximal inhibitory concentration (IC50) of 0.4 nM. Regarding `C[C@@H]1CN(c2c(Cl)cnc3cc(C(F)(F)F)ccc23)CC[C@@H]1C(=O)N1CCn2c(nnc2C(F)(F)F)C1` [Example 55, ((3S,4S)-1-(3-chloro-7-(trifluoromethyl)quinolin-4-yl)-3-methylpiperidin-4-yl)(3-(trifluoromethyl)-5,6-dihydro-[1,2,4]triazolo[4,3-a]pyrazin-7(8H)-yl)methanone], it took 0.2 nM to reach half-maximal inhibition (IC50). This IC50 lies about 2-fold lower than the previous one. The result for `C[C@@H]1CN(c2ccnc3cc(-n4cncn4)ccc23)CC[C@@H]1C(=O)N1CCn2c(nnc2C(F)(F)F)C1` [Example 74, ((3S,4S)-1-(7-(1H-1,2,4-triazol-1-yl)quinolin-4-yl)-3-methylpiperidin-4-yl)(3-(trifluoromethyl)-5,6-dihydro-[1,2,4]triazolo[4,3-a]pyrazin-7(8H)-yl)methanone] reads 41.7 nM. The figure for `CCOC(=O)c1cnc2ccc(F)cc2c1N1CC[C@H](C(=O)N2CCn3c(nnc3C(F)(F)F)C2)[C@H](C)C1` [Example 1, ethyl 6-fluoro-4-[(3S,4S)-3-methyl-4-{[3-(trifluoromethyl)-5,6-dihydro[1,2,4]triazolo[4,3-a]pyrazin-7(8H)-yl]carbonyl}piperidin-1-yl]quinoline-3-carboxylate] is 3680 nM; for `CC1CN(c2ccnc3ccc(Cl)cc23)CCC1C(=O)N1CCn2c(nnc2C(F)(F)F)C1` (stereo not shown) [Example 10, [1-(6-chloroquinolin-4-yl)-3-methylpiperidin-4-yl][3-(trifluoromethyl)-5,6-dihydro[1,2,4]triazolo[4,3-a]pyrazin-7(8H)-yl]methanone] it is 8.5 nM. `C[C@@H]1CN(c2c(Cl)c[n+]([O-])c3cc(C(F)(F)F)ccc23)CC[C@@H]1C(=O)N1CCn2c(nnc2C(F)(F)F)C1` [Example 40, {(3S,4S)-1-[3-chloro-1-oxido-7-(trifluoromethyl)quinolin-4-yl]-3-methylpiperidin-4-yl}[3-(trifluoromethyl)-5,6-dihydro[1,2,4]triazolo[4,3-a]pyrazin-7(8H)-yl]methanone] had an IC50 of 0.8 nM. Regarding `C[C@@H]1CN(c2ccnc3cc(OC(F)(F)F)ccc23)CC[C@@H]1C(=O)N1CCn2c(nnc2C(F)(F)F)C1` [Example 29, {(3S,4S)-3-methyl-1-(7-(trifluoromethoxy)quinolin-4-yl]piperidin-4-yl}[3-(trifluoromethyl)-5,6-dihydro[1,2,4]tria-zolo[4,3-a]pyrazin-7(8H)-yl]methanone], the IC50 came out at 0.34 nM.

On to `C[C@@H]1CN(c2ccnc3ccc(F)cc23)CC[C@@H]1C(=O)N1CCn2c(nnc2C(F)(F)F)C1` [Example 14, [(3S,4S)-1-(6-fluoroquinolin-4-yl)-3-methylpiperidin-4-yl][3-(trifluoromethyl)-5,6-dihydro[1,2,4]tria-zolo[4,3-a]pyrazin-7(8H)-yl]methanone], for which the IC50 came out at 52 nM. Take `CC(=O)c1ccc2c(N3CC[C@H](C(=O)N4CCn5c(nnc5C(F)(F)F)C4)[C@H](C)C3)c(Cl)cnc2c1` [Example 43, 1-{3-chloro-4-[(3S,4S)-3-methyl-4-{[3-(trifluoromethyl)-5,6-dihydro[1,2,4]triazolo[4,3-a]pyrazin-7(8H)-yl]carbonyl}piperidin-1-yl]quinolin-7-yl}ethanone]: half-maximal inhibition (IC50) was put at 0.28 nM. This IC50 lies about 190-fold lower than the previous one.

As to `C[C@@H]1CN(c2ccnc3cc(C(F)(F)F)ccc23)CC[C@@H]1C(=O)N1CCn2c(nnc2C(F)(F)F)C1` [Example 12, {(3S,4S)-3-methyl-1-[7-(trifluoromethyl)quinolin-4-yl]piperidin-4-yl}[3-(trifluoromethyl)-5,6-dihydro[1,2,4]triazolo[4,3-a]pyrazin-7(8H)-yl]methanone], the IC50 was 5.2 nM. Against the preceding compound, the IC50 is about 19-fold higher.

The record behind these values is patent US10414775B2 (Merck Sharp & Dohme Corp., priority 2016, dated 2019).
